The values below come from paper PMC6804243, “Small-Molecule Inhibition of UBE2T/FANCL-Mediated Ubiquitylation in the Fanconi Anemia Pathway” (ACS Chemical Biology, 2019).

Structures are written as SMILES. “Also recorded” adds a separate entry of the source.

This experiment concerns T1, UBE2D1 / GST-RNF8.
T1 construct: His6 (N); made in house; host or cells: E. coli Rosetta (DE3)
The experiment in a line: Gel-based ubiquitylation assay, E2 = UBE2D1, E3 = GST-RNF8. The note with it: 10 min at 37 °C, Western blot. Type of experiment: biochemical. On the procedure: Figure 2 Gel-based ubiquitylation assays with confirmed HTRF hits. […] Western blots (WB) probed for GST or biotin as labeled. Reactions contained 20 nM His6-UBE1, 50 nM E2, 250 nM GST-E3, 500 nM biotinylated ubiquitin: (a) E2 = UBE2T, E3 = GST-FANCLRING, 30 min of reaction at 37 °C; (b) E2 = UBE2D1, E3 = GST-FANCLRING, 30 min of reaction at 37 °C; and (c) E2 = UBE2D1, E3 = GST-RNF8, 10 min of reaction at 37 °C.
A further ubiquitylation assay was performed with an alternative E3, RNF8, which also plays important roles in the DDR.[14] In contrast to GST-FANCLRING, long polyubiquitin chains were attached to GST-RNF8 by UBE2D1 (Figure 2c).
Purified protein was concentrated using a Vivaspin-6 concentrator with a 10 kDa MW cut-off (Vivascience) and flash-frozen in small aliquots for storage at […]
Cy5 labelling of ubiquitin. To a 5 mg/mL solution of recombinant human ubiquitin (Boston Biochem) in 0.1 M NaHCO3 pH 8.3, was added a 4-fold molar excess of Cyanine5 NHS ester (Lumiprobe). The reaction was incubated at 23 °C for 4 hours in the dark. The protein was separated from unreacted dye by passage through a PD-10 desalting column (GE Healthcare) equilibrated with PBS. Purified protein was concentrated using a Vivaspin-6 concentrator with a 3 kDa MW cut-off (Vivascience) and flash-frozen in small aliquots for storage […]
Homogeneous Time-Resolved Fluorescence (HTRF) Assay. GST-FANCLRING (200 nM) was incubated with anti-GST Tb (CisBio, #61GSTTL) (2.5 ng final) at room temperature for 30 minutes in assay buffer (50 mM Tris-HCl pH 8.0, 1 mM TCEP, 5 mM MgCl2, 0.005% Tween-20). Meanwhile, 10 μL of UBE2T in assay buffer (or assay buffer alone for no enzyme controls) was incubated in a white 384-well plate (Corning) with 20 nL DMSO or compound in DMSO. After 30 minutes, the GST-RINGRING solution was added to an equal volume solution containing His-UBE1 (Boston Biochem) (16 nM), Cy5-ubiquitin (400 nM), ATP (0.8 mM) in assay buffer. 10 μL of this solution was immediately added to each well of the 384 -well plate containing UBE2T or buffer. F inal concentrations: His -UBE1 (4 nM), UBE2T (6 nM), GST -RINGRING (50 nM), Cy5-ubiquitin (100 nM), ATP (0.2 mM), compound (10 or 20 μM) in 0.1 %
(v/v) DMSO. After a 10 minute incubation at 23 °C, 5 µL of a 50 mM EDTA solution were added to each well to stop the reaction. Signal was measured at λEx 340 nm and λEm 665 nm and 620 nm using a PHERAstar FS plate reader
(BMG Labtech). A ratio was calculated as [λEm(665)/λEm(620)] × 104 for each well and this was used to determine the percent inhibition for test compounds.
Gel-based ubiquitylation assays. Assays were carried out in a total volume of 10 µL containing 20 nM His6-UBE1 (Boston Biochem), 50 nM UBE2T, 250 nM GST-E3 and 500 nM biotinylated ubiquitin (Boston Biochem) in buffer (50 […]
Reaction mixtures were incubated for the indicated time at 37 °C and stopped by the addition of 2X reducing SDS -PAGE sample buffer, separated on NuPAGE Novex 4 –12% Bis/Tris gradient gels (Invitrogen) and visualized by Western blotting using the indicated antibodies (Table S3).
Cell culture. U2OS cells were cultured at 37 °C in a humidified atmosphere and 5% (v/v) CO2 in Dulbecco's Modified Eagle Medium (DMEM; Sigma-Aldrich) supplemented with 10% (v/v) fetal bovine serum (FBS), 100 units/ml of penicillin, […] of streptomycin and 292 μg/mL L-glutamine.
Cell extract preparation and immunoblotting. U2OS cells were lysed in buffer containing 50 mM Tris-HCl pH 7.5, 2% SDS, 10 mM NEM, cocktail protease inhibitor (Roche) and phosphatase inhibitor cocktail followed by sonication 100 µg of extracts were boiled for 5 mins at 95 °C in 5X loading buffer and loaded onto NuPAGE Novex 4–12% Bis/Tris gradient gels
(Invitrogen), or NuPAGE Novex 3-8% Tris/Acetate gradient gels (Invitrogen) for detection of mUb-FANCD2. After separation the gels were transferred to PVDF and the membranes were blocked with Tris-buffered saline containing 0.1% (v/v) Tween-20 (TBST) and 5% (v/v) bovine serum albumin (BSA) and […]

As for `NCCN1C(=O)CC[C@H]2CN(Cc3cccc(-c4ccco4)c3)CC[C@H]21` [CU1], the “ubiquitylation of GST-RNF8 and UBE2D1” value is recorded as “but not GST-RNF8”. In addition, the “ubiquitylation of GST-RNF8 and UBE2D1” value (listed as CU 1) is “no detectable effects on ubiquitylation of GST-RNF8 and UBE2D1”.

On to `CCN1CCN(c2cc(C)nc3nc(CN4CCCCC4C)nn23)CC1` (centres unmarked) [CU2], for which the “ubiquitylation of GST-RNF8 and UBE2D1” value was “but not GST-RNF8; also recorded: no detectable effects on ubiquitylation of GST-RNF8 and UBE2D1”. For `Cc1nnc(N(C)CC2CCN(CC(C)O)CC2)c(C#N)c1C` (centres unmarked) [CU9], the “ubiquitylation of GST-RNF8 and UBE2D1” value is “but not GST-RNF8; also recorded: no detectable effects on ubiquitylation of GST-RNF8 and UBE2D1”.

Take `NC(=O)[C@@H]1CCCN1C(=O)c1cc(-n2cccc2)ccc1Cl` [CU12]: the “ubiquitylation of GST-RNF8 and UBE2D1” value is “appeared to inhibit the ubiquitylation of all species in the assay”.
